Laboratory results reported in ChEMBL document CHEMBL1137296, “Subtle side-chain modifications of the hop phytoestrogen 8-prenylnaringenin result in distinct agonist/antagonist activity profiles for estrogen receptors alpha and beta” (J Med Chem, 2006).

Legend:
Estrogen receptor = target: T1, Estrogen receptor (Homo sapiens, UniProt P03372)
T1 sequence (P03372 whole entry): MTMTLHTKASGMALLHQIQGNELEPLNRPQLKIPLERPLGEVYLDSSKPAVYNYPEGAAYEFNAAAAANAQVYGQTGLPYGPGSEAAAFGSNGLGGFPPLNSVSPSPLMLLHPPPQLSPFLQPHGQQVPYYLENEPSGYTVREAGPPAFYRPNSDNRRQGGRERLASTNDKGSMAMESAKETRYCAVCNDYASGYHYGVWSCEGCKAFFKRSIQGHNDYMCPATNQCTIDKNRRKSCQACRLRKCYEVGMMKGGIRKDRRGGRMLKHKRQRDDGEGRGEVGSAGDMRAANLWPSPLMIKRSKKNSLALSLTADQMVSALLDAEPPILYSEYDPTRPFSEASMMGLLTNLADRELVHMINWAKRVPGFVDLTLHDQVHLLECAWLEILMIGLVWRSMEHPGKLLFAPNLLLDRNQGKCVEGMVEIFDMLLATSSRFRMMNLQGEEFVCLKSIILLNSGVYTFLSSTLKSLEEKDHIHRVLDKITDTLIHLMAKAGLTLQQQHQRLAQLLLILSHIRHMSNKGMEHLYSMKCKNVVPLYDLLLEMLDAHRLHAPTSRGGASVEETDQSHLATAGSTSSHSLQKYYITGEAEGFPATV
Description: Displacement of [3H]E2 from human recombinant ERalpha LBD by SPA

Estrogen receptor beta = Estrogen receptor beta (Homo sapiens, UniProt Q92731)
Description: Displacement of [3H]E2 from human recombinant ERbeta LBD by SPA

[1] = target: T2, Estrogen receptor (Homo sapiens) (UniProt P03372); conditions: Huh-7, filed as antagonist
T2 sequence (whole entry): T1 sequence (P03372 whole entry)
Description: Antagonist activity on ERalpha-mediated transcription of ERE-luciferase reporter gene in human Huh7 cells relative to estradiol

Estrogen receptor beta, sequence (Q92731 whole entry): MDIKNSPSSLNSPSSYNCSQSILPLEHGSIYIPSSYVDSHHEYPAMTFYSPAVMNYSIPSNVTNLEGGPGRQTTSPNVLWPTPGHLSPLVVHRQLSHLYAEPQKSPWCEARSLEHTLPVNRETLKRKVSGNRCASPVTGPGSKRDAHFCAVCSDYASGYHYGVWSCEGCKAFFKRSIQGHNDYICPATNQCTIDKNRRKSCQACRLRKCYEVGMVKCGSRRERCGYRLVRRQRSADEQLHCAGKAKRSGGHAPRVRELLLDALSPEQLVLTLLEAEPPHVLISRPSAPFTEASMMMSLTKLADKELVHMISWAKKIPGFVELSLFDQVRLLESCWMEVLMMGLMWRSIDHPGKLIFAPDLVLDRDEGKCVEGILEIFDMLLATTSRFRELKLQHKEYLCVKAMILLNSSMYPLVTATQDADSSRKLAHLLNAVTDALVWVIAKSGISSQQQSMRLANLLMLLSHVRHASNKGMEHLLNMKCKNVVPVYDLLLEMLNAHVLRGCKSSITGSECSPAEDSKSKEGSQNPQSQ

Compound | IC50 (Estrogen receptor) [nM] | IC50 (Estrogen receptor beta) [nM] | Antagonist activity [1]
O=C1C[C@@H](c2ccc(O)cc2)Oc2c(Cc3ccccc3)c(O)cc(O)c21 | 503 | 244 | 
O=C1C[C@@H](c2ccc(O)cc2)Oc2cc(O)cc(O)c21 [NARINGENIN] | 75300 | 13500 | 
CCCCCCCCCCCc1c(O)cc(O)c2c1O[C@H](c1ccc(O)cc1)CC2=O | 1020 | 421 | Partial antagonist
CCCCCc1c(O)cc(O)c2c1O[C@H](c1ccc(O)cc1)CC2=O | 383 | 97 | 
CCCc1c(O)cc(O)c2c1O[C@H](c1ccc(O)cc1)CC2=O | 155 | 29 | 
Cc1c(O)cc(O)c2c1O[C@H](c1ccc(O)cc1)CC2=O | 5250 | 863 | 
CCCCCCCCCc1c(O)cc(O)c2c1O[C@H](c1ccc(O)cc1)CC2=O | 436 | 113 | Partial antagonist

Continued by falling IC50 (Estrogen receptor), values first:

IC50 (Estrogen receptor) [nM] | IC50 (Estrogen receptor beta) [nM] | Antagonist activity [1] | Compound
392 | 69 | Partial antagonist | CCCCCCCc1c(O)cc(O)c2c1O[C@H](c1ccc(O)cc1)CC2=O
216 | 141 |  | CC(C)(C)Cc1c(O)cc(O)c2c1O[C@H](c1ccc(O)cc1)CC2=O
140 | 59 |  | CC(C)CCc1c(O)cc(O)c2c1O[C@H](c1ccc(O)cc1)CC2=O
80 | 37 |  | CC(C)Cc1c(O)cc(O)c2c1O[C@H](c1ccc(O)cc1)CC2=O
